Source: US8003136B2, “Standardization of botanical products utilizing biological activity as a marker” (priority 2004, dated 2011)
≈ marks a conversion by molar mass, not a printed value. Where two headings read alike, the source gives them in different places.

Tests used:
[1] = system: Human gastric adenocarcinoma (AGS) cells; test: growth reduction of AGS cells; type: cell-based
Description: Hydrastis leaf extract produced activity slightly less than the control or root extract but contained one fifth of the berberine indicating synergistic and/or additive compounds exist in the leaf. Antineoplastic—Cancer Cell Cultures. This assay measures the ability of Hydrastis to stimulate or arrest metabolic activity of tumor cells. Human gastric adenocarcinoma (AGS), CaCo2 colon cancer cells and normal colon epithelial tissue (ATCC) will be grown in Petri plates on Dulbecco's Modified Eagle Medium (DME) with 4 mM L-glutamine, 4.5 g/l glucose and 10% fetal bovine serum. CRL 7368 Breast Cancer cells and CRL 7367 Fibroblast control cells will be grown in Petri plates on DME with 4 mM L-glutamine, 4.5 g/l glucose, 1.5 g/l sodium bicarbonate and 10% fetal bovine serum. A 95% confluent layer of healthy cells will be divided as follows: surface media will be poured from the plates so that the cells are not dislodged. Ten milliliters of sterile phosphate-buffered saline (PBS) will be added to the plates to rinse the cell layer and then discarded. […] Cellular release by the trypsin is indicated when the cell layer moves when the plate is tilted. Dislodged cells will be added to 15 ml sterile tubes containing 1 ml calf serum. […] The cellular pellet is suspended in 5 ml of medium by mixing. A cell suspension aliquot (0.1 ml) is added to 0.9 ml of 0.4% Trypan Blue and mixed. Cell counts will be made using a hemocytometer charged with the cell suspension. Aliquots of the cell suspension (based on cell count) will be added to Petri plates, then 15 ml of media will be added and the plates incubated at 37° C. in a CO2 incubator. Cells will be checked daily for contamination and morphology. Media will be replaced every 2 to 3 days with fresh medium. The Cell Titer 96® AQueous Non-radioactive Cell proliferation Assay manufactured by Promega, is a colorimetric method used to measure dehydrogenase activity found in metabolically active cells. The MTS is reduced to formazan in the presence of metabolically active cells and the absorbance of formazan is measured spectrophotometrically. Two days post subculture, cells will be rinsed twice with respective media, harvested, and the cell concentration adjusted to 1×10^5 cells/ml. Fifty μl of the cell suspension will be added to the individual wells of a 96-well microtiter plate. Each well will contain 50 μl of the test sample (extract) or standard reference drug. Plates will be incubated for 48 to 72 hr at 37° C. in a CO2 incubator. After incubation, 20 μl of MTS/PMS solution will be added, and the plates incubated for an additional 1 to 4 hr. At the end of the incubation period, absorbance will be recorded at 490 nm.

SA-1199B = test: MIC against Staph. strain SA-1199B (over expresses NorA MDR efflux protein); type: cell-based
Description: (§1) Additional preliminary data regarding the potential synergistic activity of Hydrastis leaf on two Staph. strains SA-1199B and SA-K2068 was developed using Hydrastis extracts. […]

SA-K2068 = test: MIC against Staph. strain SA-K2068 (MDR efflux pump distinct from NorA); type: cell-based
Description: as §1

hepatoma HepG2 cells = conditions: cited from earlier work
murine leukemia L1210 = conditions: cited from earlier work
Giardiasis = conditions: berberine 10 mg/kg/day for 10 days; metronidazole 20 mg/kg/day for 5-7 days; cited from earlier work
[2] = system: COX-2 transcriptional activity in human colon cancer cells; conditions: dose- and time-dependent; cited from earlier work
E. coli strain ORN178 = test: MIC and MBC against E. coli strain ORN178; type: cell-based; conditions: for concentration determined to be non-inhibitory (up to): inhibitor alone
Method: Minimum inhibition concentration (MIC) will be tested in appropriate liquid media in 96-well microtiter plates. Each well contains 5×10^5 CFU/ml of test bacteria, serially diluted extracts and medium. In some cases when chemical solvents are used, it will be tested simultaneously with the test compounds to ensure the absence of antimicrobial activity. Triplicate samples are to be performed.
After 10 min at 37° C., the treated bacterial (or fungal) culture will be diluted and viable colony counts determined. The ability of goldenseal extract in killing test organisms will be elucidated.
Antimicrobial Characteristics of Goldenseal: Antimicrobial activities of SHF NOP certified Hydrastis were evaluated and compared to that of pure chemical berberine sulfate and berberine chloride. […] The synergistic effects of berberine with the known MDR pump inhibitor (reserpine and orthovanadate) as well as Hydrastis root extracts with leaf extracts were also determined. Please refer to the Materials and Methods section for detailed protocol. All extracts were lyophilized and reconstituted in H2O.

[3] = system: human gastric carcinoma SNU-5 cells; conditions: SNU-5 cell line; cited from earlier work
human tumour HeLa = conditions: cited from earlier work
transplanted B16 line = conditions: day 16, doses of 5 and 10 mg/kg; cited from earlier work
[4] = system: HT-1080 (human fibrosarcoma); conditions: cited from earlier work
[5] = in 2.5 hrs; cited from earlier work
[6] = system: SNU-638 (human stomach adenocarcinoma); conditions: cited from earlier work
Streptococcus mutans = conditions: Hwang (2003); cited from earlier work
[7] = system: Bifidobacterium adolescentis, Lactobacillus acidophilus, and Lactobacillus casei; conditions: cited from earlier work
[8] = system: McF7, a breast epithelial cell line; test: MTS cell proliferation assay, McF7; type: cell-based
Description: Another study at Clemson examined the anti-tumor properties of berberine when combined with pump inhibitory characteristics of leaf extracts from Hydrastis. This combination inhibited proliferation of both CaCo2, a colon epithelial cell line, and McF7, a breast epithelial cell line. […] Anti-tumor properties block uncontrolled growth, while pump inhibitory properties aid in lowering the dosage of drugs needed to treat the patient. MTS assay was used to measure cell proliferation. Cell proliferation of McF7 was reduced to 45% of the control when treated with 2% of berberine. […] However, a synergetic effect was observed when combining 0.5% berberine with 1.5% leaf extract. Proliferation of McF7 was reduced to 59% compared to the untreated cells. The Cell Titer 96® AQueous Non-radioactive Cell proliferation Assay manufactured by Promega, is a colorimetric method used to measure dehydrogenase activity found in metabolically active cells. The MTS is reduced to formazan in the presence of metabolically active cells and the absorbance of formazan is measured spectrophotometrically. Two days post subculture, cells will be rinsed twice with respective media, harvested, and the cell concentration adjusted to 1×10^5 cells/ml. Fifty μl of the cell suspension will be added to the individual wells of a 96-well microtiter plate. […] At the end of the incubation period, absorbance will be recorded at 490 nm.

Giardia = conditions: three divided doses for 6 days; berberine 5 mg/kg/day, metronidazole 10 mg/kg/day; cited from earlier work
[9] = system: Chang (normal) liver cells; conditions: cited from earlier work
[10] = hyperlipidemic hamsters; cited from earlier work
[11] = system: CaCo2, a colon epithelial cell line; test: MTS cell proliferation assay, CaCo2; type: cell-based
Method: Another study at Clemson examined the anti-tumor properties of berberine when combined with pump inhibitory characteristics of leaf extracts from Hydrastis. […] Anti-tumor properties block uncontrolled growth, while pump inhibitory properties aid in lowering the dosage of drugs needed to treat the patient.
MTS assay was used to measure cell proliferation.
The MTS is reduced to formazan in the presence of metabolically active cells and the absorbance of formazan is measured spectrophotometrically. Two days post subculture, cells will be rinsed twice with respective media, harvested, and the cell concentration adjusted to 1×10^5 cells/ml. Fifty μl of the cell suspension will be added to the individual wells of a 96-well microtiter plate. Each well will contain 50 μl of the test sample (extract) or standard reference drug. Plates will be incubated for 48 to 72 hr at 37° C. in a CO2 incubator. After incubation, 20 μl of MTS/PMS solution will be added, and the plates incubated for an additional 1 to 4 hr. At the end of the incubation period, absorbance will be recorded at 490 nm.

[12] = system: 15 strains of Helicobacter pylori; conditions: Mahady, 2003; cited from earlier work
[13] = oral, 32 patients, 3 months; cited from earlier work
[14] = 10 μg/ml of reserpine or 2 mM of orthovanadate supplemented

For `COc1ccc2cc3[n+](cc2c1OC)CCc1cc2c(cc1-3)OCO2` [Berberine chloride], the “% growth reduction of AGS cells” value ([1]; first volume column, unit μl, berberine chloride control 500 μg/ml) was “.7%”, the “% growth reduction of AGS cells” value ([1]; fourth volume column, unit μl) was 2.6% and the “% growth reduction of AGS cells” value ([1]; head printed '0 μl') was 4.2%. For the same molecule, the “% growth reduction of AGS cells” value ([1]; head printed '6 μl') was 2.1%, the “% growth reduction of AGS cells” value ([1]; second volume column, unit μl) was “.5%” and the “% growth reduction of AGS cells” value ([1]; third volume column, unit μl) was 3.7%.
Molecule `O=C(O)c1cn(C2CC2)c2cc(N3CCNCC3)c(F)cc2c1=O` [Ciprofloxacin] has an MIC (SA-1199B; +312.5 μg/mL leaf ext.) of 2 µg/mL, an MIC (SA-1199B; +625 μg/mL leaf ext.) of 2 µg/mL and an MIC (SA-1199B; +1250 μg/mL leaf ext.) of less than 0.5 µg/mL. For the same molecule, the MIC (SA-1199B; +5~20 μg/mL Reserpine) was 1 µg/mL, the MIC (SA-1199B; agent alone) was 8 µg/mL and the MIC (SA-K2068; read-out: SA K2068 MIC, +312.5 μg/mL leaf ext.) was 0.5 µg/mL. For the same molecule, the MIC (SA-K2068; read-out: SA K2068 MIC, +625 μg/mL leaf ext.) was 0.5 µg/mL, the MIC (SA-K2068; read-out: SA K2068 MIC, +5~20 μg/mL Reserpine) was 0.5 µg/mL and the MIC (SA-K2068; read-out: SA K2068 MIC, agent alone) was 4 µg/mL.
For `COc1ccc2cc3[n+](cc2c1OC)CCc1cc2c(cc1-3)OCO2` [berberine], the cytotoxicity (hepatoma HepG2 cells) is given as “significant cytotoxicity”, the “IC50” value (murine leukemia L1210; Jantova, 2003) is given as “less than 4 microg mL(−1)” and the IC50 (murine leukemia L1210; Kettman, 2004) is given as “less than 4 microg/ml”. For the same molecule, the “negative stool specimens after 10 days” value (Giardiasis) was “Ninety”, the “remained negative one month later” value (Giardiasis) was 83% and the “concentrations that inhibit COX-2 transcriptional activity” value [2] was “higher than 0.3 microM”. The “MBC of berberine reduced to” value (E. coli strain ORN178; [14]) was “¼”, the “MIC of berberine reduced by” value (E. coli strain ORN178; [14]) was “half” and the MBC (E. coli strain ORN178; Escherichia coli, ORN178, berberine alone, read-out: MBC (μg/ml berberine)) was 125 µg/mL. For the same molecule, the MIC (E. coli strain ORN178; Escherichia coli, ORN178, berberine alone, read-out: MIC (μg/ml berberine)) was 62.5 µg/mL, the IC50 [3] was 48 µM and the “IC50” value (human tumour HeLa; Jantova, 2003) was “less than 4 microg mL(−1)”. The IC50 (human tumour HeLa; Kettman, 2004) was “less than 4 microg/ml”, the tumor volume (transplanted B16 line) was “significant reduction” and the IC50 [4] was 3.2 µg/mL. The “absorbed in the intestine” value [5] was “less than 5%”, the IC50 [6] was 3.4 µg/mL and the “Minimum Inhibitory Concentration (MIC)” value (Streptococcus mutans) was 125 µg/mL. For the same molecule, the “inhibition of "friendly" bacteria” value [7] was “weak or no inhibition”, the “Proliferation of McF7 compared to the untreated cells” value ([8]; 0.5% berberine combined with 1.5% leaf extract) was 59% and the “Cell proliferation of McF7, % of the control” value ([8]; treated at a concentration of 2%) was 45%. For the same molecule, the “subjects Giardia-free upon stool analysis” value (Giardia) was 68%, the “subjects asymptomatic / resolution of symptoms” value (Giardia) was 48% and the cytotoxicity [9] was “ineffective”. The “increase in hepatic LDLR mRNA” value [10] was 3.5 fold, the “increase in hepatic LDLR protein” value [10] was 2.6 fold and the “reduction of LDL-cholesterol” value [10] was 42%. For the same molecule, the “reduction of serum cholesterol” value [10] was 40%, the “cell proliferation rate, CaCo2” value ([11]; combination of 0.5% berberine and 0.5% leaf extract) was 48% and the “cell proliferation, CaCo2” value ([11]; treated with 0.5%) was 75%. For the same molecule, the MIC50 [12] was 12.5 µg/mL, the “reduction of LDL-cholesterol” value [13] was 25% and the “reduction of serum cholesterol” value [13] was 29%. For the same molecule, the reduction of triglycerides [13] was 35%.
For `COc1ccc2c(c1OC)C(=O)O[C@@H]2[C@H]1c2cc3c(cc2CCN1C)OCO3` [beta-hydrastine], the MIC50 [12] is given as 100.0 µg/mL (≈ 261 µM).
For `Cc1ncc([N+](=O)[O-])n1CCO` [metronidazole], the “negative stool specimens after 10 days” value (Giardiasis) is listed as 95%, the “remained negative one month later” value (Giardiasis) is listed as 90% and the “subjects Giardia-free upon stool analysis” value (Giardia) is listed as “All”. The “subjects asymptomatic / resolution of symptoms” value (Giardia) was 33%.
For `[O]=[V]([O-])([O-])[O-]` [orthovanadate], the “concentration determined to be non-inhibitory (up to)” value (E. coli strain ORN178) was no more than 4 mM.
For `COC(=O)[C@H]1[C@H]2C[C@@H]3c4[nH]c5cc(OC)ccc5c4CCN3C[C@H]2C[C@@H](OC(=O)c2cc(OC)c(OC)c(OC)c2)[C@@H]1OC` [reserpine], the “concentration determined to be non-inhibitory (up to)” value (E. coli strain ORN178) was “Up to 5000 μg/ml”.
